Patent US4921850A, “3-propenylcephem derivative” (Eisai Co., Ltd., priority 1986, dated 1990)
Converted amounts (≈) assume the structure as drawn.

What was measured:
Assay in all cases: Anti-bacterial activity (MIC), agar dilution
Type in all cases: cell-based
[1] = test system: Morganella morganii EP-14; conditions: Morganella morganii, EP14, 18 h, about 10^6 CFU/ml, 37° C., read-out: MIC
How it was run: (§1)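 Read-out is MIC (μg/ml) after 18 hours at 37° C on Mueller-Hinton agar with twofold antibiotic series. Inoculum: overnight broth cultures diluted to ~10^6 CFU/ml, spotted.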

Pseud. aeruginosa EP-01 = conditions: Pseudomonas aeruginosa, EP01, 18 h, Pseud. aeruginosa EP-01; agar dilution, about 10^6 CFU/ml, 18 hours, 37° C.; read-out: MIC
How it was run: as §1

Kleb. pneumoniae EK-6 = conditions: Klebsiella pneumoniae, EK6, 18 h, Kleb. pneumoniae EK-6; agar dilution, about 10^6 CFU/ml, 18 hours, 37° C.; read-out: MIC
How it was run: as §1

Ser. marcescens ES-75 = conditions: Serratia marcescens, ES75, 18 h, Ser. marcescens ES-75; agar dilution, about 10^6 CFU/ml, 18 hours, 37° C.; read-out: MIC
How it was run: as §1

Staph. aureus 209-P = conditions: Staphylococcus aureus, 209P, 18 h, Staph. aureus 209-P; agar dilution, about 10^6 CFU/ml, 18 hours, 37° C.; read-out: MIC
How it was run: as §1

Escher. coli NIHJ = conditions: Escherichia coli, 18 h, Escher. coli NIHJ; agar dilution, about 10^6 CFU/ml, 18 hours, 37° C.; read-out: MIC
How it was run: as §1

Compound	MIC [1] [µg/mL]	MIC (Pseud. aeruginosa EP-01) [µg/mL]	MIC (Kleb. pneumoniae EK-6) [µg/mL]	MIC (Ser. marcescens ES-75) [µg/mL]	MIC (Staph. aureus 209-P) [µg/mL]	MIC (Escher. coli NIHJ) [µg/mL]
Nc1nc(/C(=N/OC(F)F)C(=O)N[C@@H]2C(=O)N3C(C(=O)[O-])=C(/C=C/C[N+](CCO)(CCO)CCO)CS[C@H]23)ns1 [Example 117]	≤ 0.025	1.56 (≈ 2.57 µM)	0.05 (≈ 0.0823 µM)	0.2 (≈ 0.329 µM)	0.4 (≈ 0.658 µM)	0.05 (≈ 0.0823 µM)
C[N+](C)(C/C=C/C1=C(C(=O)[O-])N2C(=O)[C@@H](NC(=O)/C(=N\OCF)c3nsc(N)n3)[C@H]2SC1)CC(N)=O [Example 118, 7β-[2-(5-Amino-1,2,4-thiadiazol-3-yl)-(Z)-2-fluoromethoxyiminoacetamido]-3-[(E)-3-(carbamoylmethyldimethylammonio)-1-propen-1-yl]-3-cephem-4-carboxylate]	≤ 0.025	0.4 (≈ 0.737 µM)	≤ 0.025	0.1 (≈ 0.184 µM)	0.2 (≈ 0.369 µM)	≤ 0.025
C[N+]1(C/C=C/C2=C(C(=O)[O-])N3C(=O)[C@@H](NC(=O)/C(=N\OCF)c4nsc(N)n4)[C@H]3SC2)CCN(S(N)(=O)=O)CC1 [Example 119, 7β-[2-(5-Amino-1,2,4-thiadiazol-3-yl)-(Z)-2-fluoromethoxyiminoacetamido]-3-[(E)-3-(1-methyl-4-sulfamoyl-1-piperazinio)-1-propen-1-yl]-3-cephem-4-carboxylate]	≤ 0.025	0.8 (≈ 1.29 µM)	≤ 0.025	0.05 (≈ 0.0807 µM)	0.2 (≈ 0.323 µM)	≤ 0.025
C[N+](C)(C/C=C/C1=C(C(=O)[O-])N2C(=O)[C@@H](NC(=O)/C(=N\OCF)c3nsc(N)n3)[C@H]2SC1)Cc1nnco1 [Example 120, 7β-[2-(5-Amino-1,2,4-thiadiazol-3-yl)-(Z)-2-fluoromethoxyiminoacetamido]-3-[(E)-3-[(1,3,4-oxadiazol-2-yl)methyldimethylammonio]-1-propen-1-yl]-3-cephem-4-carboxylate]	≤ 0.025	0.8 (≈ 1.41 µM)	≤ 0.025	0.05 (≈ 0.0881 µM)	0.2 (≈ 0.352 µM)	≤ 0.025
C[N+]1(C/C=C/C2=C(C(=O)[O-])N3C(=O)[C@@H](NC(=O)/C(=N\OCF)c4nsc(N)n4)[C@H]3SC2)CCN(C=N)CC1.Cl [Example 123, 7β-[2-(5-Amino-1,2,4-thiadiazol-3-yl)-(Z)-2-fluoromethoxyiminoacetamido]-3-[(E)-3-(1-methyl-4-formimidoyl-1-piperazinio)-1-propen-1-yl]-3-cephem-4-carboxylate hydrochloride]	0.05	1.56	0.05	0.2	0.4	0.05
C[N+]1(C/C=C/C2=C(C(=O)[O-])N3C(=O)[C@@H](NC(=O)/C(=N\OCF)c4nsc(N)n4)[C@H]3SC2)CCNCC1 [Example 124, 7β[2-(5-Amino-1,2,4-thiadiazol-3-yl)-(Z)-2-fluoromethoxyiminoacetamido]-3-[(E)-3-(1-methyl-1-piperazinio)-1-propen-1-yl]-3-cephem-4-carboxylate]	0.05 (≈ 0.0925 µM)	0.8 (≈ 1.48 µM)	≤ 0.025	0.1 (≈ 0.185 µM)	0.2 (≈ 0.37 µM)	0.05 (≈ 0.0925 µM)
Nc1nc(/C(=N/OCF)C(=O)N[C@@H]2C(=O)N3C(C(=O)[O-])=C(/C=C/C[N+]45CCN(CC4)CC5)CS[C@H]23)ns1 [Example 129, 7β-[2-(5-Amino-1,2,4-thiadiazol-3-yl)-(Z)-2-fluoromethoxyiminoacetamido]-3-[(E)-3-(1,4-diazabicyclo[2,2,2]octan-1-io)-1-propen-1-yl]-3-cephem-4-carboxylate]	≤ 0.025	0.8 (≈ 1.45 µM)	≤ 0.025	0.05 (≈ 0.0905 µM)	0.2 (≈ 0.362 µM)	≤ 0.025
Nc1nc(/C(=N/OCF)C(=O)N[C@@H]2C(=O)N3C(C(=O)[O-])=C(/C=C/C[N+](CCO)(CCO)CCO)CS[C@H]23)ns1 [Example 143, 7β-[2-(5-Amino-1,2,4-thiadiazol-3-yl)-(Z)-2 fluoromethoxyiminoacetamido]-3-[(E)-3-[tris(2-hydroxyethyl)ammonio]-1-propen-1-yl]-3-cephem-4-carboxylate]	≤ 0.025	0.8 (≈ 1.36 µM)	≤ 0.025	0.1 (≈ 0.17 µM)	0.2 (≈ 0.339 µM)	0.05 (≈ 0.0848 µM)
C[N+](C/C=C/C1=C(C(=O)[O-])N2C(=O)[C@@H](NC(=O)/C(=N\OCF)c3nsc(N)n3)[C@H]2SC1)(CCO)CCO [Example 144, 7β-[2-(5-Amino-1,2,4-thiadiazol-3-yl)-(Z)-2-fluoromethoxyiminoacetamido]-3-[(E)-3-[bis(2-hydroxyethyl)methylammonio]-1-propen-1-yl]-3-cephem-4-carboxylate]	≤ 0.025	0.8 (≈ 1.43 µM)	0.05 (≈ 0.0893 µM)	0.1 (≈ 0.179 µM)	0.2 (≈ 0.357 µM)	≤ 0.025
N#CCO/N=C(\C(=O)N[C@@H]1C(=O)N2C(C(=O)[O-])=C(/C=C/C[N+](CCO)(CCO)CCO)CS[C@H]12)c1nsc(N)n1 [Example 147]	0.05 (≈ 0.0838 µM)	1.56 (≈ 2.61 µM)	0.05 (≈ 0.0838 µM)	0.2 (≈ 0.335 µM)	0.2 (≈ 0.335 µM)	0.4 (≈ 0.67 µM)
CC(O)C[N+](C)(C)C/C=C/C1=C(C(=O)[O-])N2C(=O)[C@@H](NC(=O)/C(=N\OCC#N)c3nsc(N)n3)[C@H]2SC1 (stereo partly drawn) [Example 149]	0.05 (≈ 0.0908 µM)	1.56 (≈ 2.83 µM)	0.05 (≈ 0.0908 µM)	0.05 (≈ 0.0908 µM)	0.2 (≈ 0.363 µM)	0.1 (≈ 0.182 µM)
C[C@@H](O)[C@@H](C(N)=O)[N+](C)(C)C/C=C/C1=C(C(=O)[O-])N2C(=O)[C@@H](NC(=O)/C(=N\OCC#N)c3nsc(N)n3)[C@H]2SC1 [Example 153]	0.1 (≈ 0.168 µM)	1.56 (≈ 2.63 µM)	0.1 (≈ 0.168 µM)	0.1 (≈ 0.168 µM)	0.4 (≈ 0.674 µM)	0.2 (≈ 0.337 µM)
C[N+]1(C/C=C/C2=C(C(=O)[O-])N3C(=O)[C@@H](NC(=O)/C(=N\OCC#N)c4nsc(N)n4)[C@H]3SC2)CCN(S(N)(=O)=O)CC1 [Example 156]	0.1 (≈ 0.16 µM)	0.8 (≈ 1.28 µM)	0.1 (≈ 0.16 µM)	0.1 (≈ 0.16 µM)	0.4 (≈ 0.638 µM)	0.1 (≈ 0.16 µM)
N#CCO/N=C(\C(=O)N[C@@H]1C(=O)N2C(C(=O)[O-])=C(/C=C/C[N+]34CCN(CC3)CC4)CS[C@H]12)c1nsc(N)n1 [Example 157, 7β-[2-(5-Amino-1,2,4-thiadiazol-3-yl)-(Z)-2-cyanomethoxyiminoacetoamido]-3-[(E)-3-(1,4-diazabicyclo[2,2,2]octane-1-io)-1-propen-1-yl]-3-cephem-4-carboxylate]	0.1 (≈ 0.179 µM)	1.56 (≈ 2.79 µM)	0.1 (≈ 0.179 µM)	0.2 (≈ 0.357 µM)	0.4 (≈ 0.715 µM)	0.1 (≈ 0.179 µM)
N#CCO/N=C(\C(=O)N[C@@H]1C(=O)N2C(C(=O)[O-])=C(/C=C/C[n+]3ccc(C(N)=O)cc3)CS[C@H]12)c1nsc(N)n1 [Example 158, 7β-[2-(5-Amino-1,2,4-thiadiazol-3-yl)-(Z)-2-cyanomethoxyiminoacetoamido]-3-[(E)-3-(4-carbamoylpyridinio)-1-propen-1-yl]-3-cephem-4-carboxylate]	0.1 (≈ 0.176 µM)	1.56 (≈ 2.74 µM)	≤ 0.025	0.1 (≈ 0.176 µM)	0.2 (≈ 0.351 µM)	≤ 0.025
C[N+](C)(C/C=C/C1=C(C(=O)[O-])N2C(=O)[C@@H](NC(=O)/C(=N\OCC#N)c3nsc(N)n3)[C@H]2SC1)Cc1nnco1 [Example 159]	0.1 (≈ 0.174 µM)	1.56 (≈ 2.71 µM)	0.05 (≈ 0.087 µM)	0.1 (≈ 0.174 µM)	0.4 (≈ 0.696 µM)	0.05 (≈ 0.087 µM)
